Assay results as given in patent US9221746B2, “Homo- and hetero-polyamino-acid derivatives of fullerene C60, method for producing same, and pharmaceutical compositions based on said derivatives” (priority 2011, dated 2015).
Marks after values point to notes of the source that are not given here.

What was measured:
[1] = test system: A/Aichi/2/69 (H3N2) influenza virus; assay: Induced influenza pneumonia in mice
[2] = test system: Herpes simplex virus, type 1, Lg strain; assay: Anti-herpetic activity in the Vero cell culture; format: cell-based; conditions: for Optical density: MTT assay
Lewis carcinoma (3LL) = assay: Transplantable Lewis carcinoma (3LL) in mice; format: in vivo
Method: These studies were carried out at the Institute for Toxicology, St. Petersburg, 2006, according to “Guidelines for the Study of Antitumor Activity of Pharmacological Agents” (“Manual on Experimental (Preclinical) Study of New Pharmacological Agents,” Ministry of Public Health of the Russian Federation, Remedium, Moscow, 2000, pp. 319-325).
The L1210 leukemia, breast adenocarcinoma Ca-755, and Lewis carcinoma (3LL) tumor cell strain were purchased from the Petrov Research Institute for Oncology, the Ministry of Public Health of the Russian Federation (St. Petersburg).
C 57 BL/6J line male mice with transplanted 3LL cells. Mouse ages: 6 to 8 weeks; body weights: 18 to 24 g.
The antitumor effect was ascertained through the following parameters: • ascite accumulation as animal body weight gain; • the lifetime of animals; and • tumor growth. The larger dimension of the tumor (length) and the smaller dimension normal thereto (width) were measured. The tumor volume was calculated, and the inhibition of tumor growth was calculated by a formula. The ascertainment criterion was the day when each individual tumor reached a volume of 500 mm^3.

[3] = LD90, intramuscularly 50 mg/kg/day
[4] = LD90, intramuscularly 100 mg/kg/day
[5] = LD90, intramuscularly 200 mg/kg/day
[6] = LD90, intraperitoneally 50 mg/kg/day
[7] = LD90, intraperitoneally 100 mg/kg/day

Fullerene Poly(Aminocaproic Acid) of Formula C60(H3){NH(CH2)5COO—}3{NH3^+(CH2)5COOH}3 [Agent No. 1]
Percent body weight change in days post infection ([1]; LD70, orally 100 mg/kg/day, day 9): +24%
Percent body weight change in days post infection ([1]; LD70, orally 100 mg/kg/day, day 11): +43%
Percent body weight change in days post infection ([1]; LD70, orally 100 mg/kg/day, day 13): +51%
Percent death protection (%) ([1]; LD70, orally 200 mg/kg/day): 70%
average lifetime ([1]; LD70, orally 200 mg/kg/day): >16 days
Percent body weight change in days post infection ([1]; LD70, orally 200 mg/kg/day, day 1): +26%
Percent body weight change in days post infection ([1]; LD70, orally 200 mg/kg/day, day 2): +31%
Percent body weight change in days post infection ([1]; LD70, orally 200 mg/kg/day, day 3): +36%
Percent body weight change in days post infection ([1]; LD70, orally 200 mg/kg/day, day 4): +36%
Percent body weight change in days post infection ([1]; LD70, orally 200 mg/kg/day, day 5): +36%
Percent body weight change in days post infection ([1]; LD70, orally 200 mg/kg/day, day 7): +38%
Percent body weight change in days post infection ([1]; LD70, orally 200 mg/kg/day, day 9): +47%
Percent body weight change in days post infection ([1]; LD70, orally 200 mg/kg/day, day 11): +51%
Percent body weight change in days post infection ([1]; LD70, orally 200 mg/kg/day, day 13): +57%
Average lifetime (days) ([1]; LD70, orally 300 mg/kg/day): 12.8 (1-8 d., 2-9 d.) days
Percent death protection (%) ([1]; LD70, orally 300 mg/kg/day): 40%
Percent body weight change in days post infection ([1]; LD70, orally 300 mg/kg/day, day 1): +24%
Percent body weight change in days post infection ([1]; LD70, orally 300 mg/kg/day, day 2): +27%
Percent body weight change in days post infection ([1]; LD70, orally 300 mg/kg/day, day 3): +28%
Percent body weight change in days post infection ([1]; LD70, orally 300 mg/kg/day, day 4): +24%
Percent body weight change in days post infection ([1]; LD70, orally 300 mg/kg/day, day 5): +19%
Percent body weight change in days post infection ([1]; LD70, orally 300 mg/kg/day, day 7): +23%
Percent body weight change in days post infection ([1]; LD70, orally 300 mg/kg/day, day 9): +35%
Percent body weight change in days post infection ([1]; LD70, orally 300 mg/kg/day, day 11): +36%
Percent body weight change in days post infection ([1]; LD70, orally 300 mg/kg/day, day 13): +38%
Average lifetime (days) [1, 3]: 11.4 (2-7 d., 1-8 d., 2-11 d) days
Percent death protection (%) [1, 3]: 40%
Average lifetime (days) [1, 4]: 13.0 (1-8 d., 1-9 d., 1-11 d.) days
Percent death protection (%) [1, 4]: 60%
Average lifetime (days) [1, 5]: 13.1 (1-7 d., 2-11 d) days
Percent death protection (%) [1, 5]: 60%
Average lifetime (days) [1, 6]: 11.5 (2-7 d. D-9 d., 2-11 d.) days
Percent death protection (%) [1, 6]: 40%
Average lifetime (days) [1, 7]: 10 D3-7 d., 2-8 d., 1-9 d.) days
Percent death protection (%) [1, 7]: 30%
Average lifetime (days) ([1]; LD90, orally 100 mg/kg/day): 10.8 (2-7 d., 1-9 d., 2-10 d., 1-11 d) days
Percent death protection (%) ([1]; LD90, orally 100 mg/kg/day): 30%
Average lifetime (days) ([1]; LD90, orally 200 mg/kg/day): 13.4 (1-10 d., 2-11 d) days
Percent death protection (%) ([1]; LD90, orally 200 mg/kg/day): 60%
increase of lifetime ([1]; intramuscular, doses of 100 and 200 mg/kg/day): twofold
toxicity for infected mice ([1]; intraperitoneal, 200 mg/kg/day): toxic
efficiency of intraperitoneal treatment ([1]; intraperitoneal, only in doses of 50 and 100 mg/kg/day): efficient
protection of cells from the cytodestructive effect of the virus ([2]; 100 TCD50, agent 60 minutes prior to infecting, all concentrations from 5.0 mcg/mL and higher): completely protects
protection of cell culture from the cytodestructive effect of the virus ([2]; 1000 TCD50/0.2 mL, infected 60 minutes post inserting the agent): complete protection
Optical density ([2]; 100 TCD50, 5.0 mcg/mL): 1.110 ± 0.08
Optical density ([2]; 100 TCD50, 10.0 mcg/mL): 1.015 ± 0.07
Optical density ([2]; 100 TCD50, 50.0 mcg/mL): 1.153 ± 0.06
Optical density ([2]; 100 TCD50, 100.0 mcg/mL): 1.79 ± 0.05
Optical density ([2]; 1000 TCD50, 5.0 mcg/mL): 1.027 ± 0.04
Optical density ([2]; 1000 TCD50, 10.0 mcg/mL): 1.021 ± 0.04
Optical density ([2]; 1000 TCD50, 50.0 mcg/mL): 1.033 ± 0.03
Optical density ([2]; 1000 TCD50, 100.0 mcg/mL): 1.083 ± 0.01
Day when the tumor reaches a volume of 500 mm³ (Lewis carcinoma (3LL); 100 mg/kg): 21.3 ± 1.21 days
Lifetime, M ± m (Lewis carcinoma (3LL); 100 mg/kg): 55.92 ± 0.98 days
day post transplantation when the first tumors were observed (Lewis carcinoma (3LL); 100 mg/kg): 7 days
Number of large (>3 mm) metastases in lungs, M ± m (Lewis carcinoma (3LL); 100 mg/kg (n = 12)): 5.8 ± 1.91
Number of metastases in lungs, M ± m (Lewis carcinoma (3LL); 100 mg/kg (n = 12)): 53.5 ± 11.23
Weight of lungs, mg M + m (Lewis carcinoma (3LL); 100 mg/kg (n = 12)): 491.9 ± 63.72 mg
percent inhibition (average tumor volume) compared to the control group (Lewis carcinoma (3LL); 100 mg/kg, day 10): 71.77%
percent inhibition (average tumor volume) compared to the control group (Lewis carcinoma (3LL); 100 mg/kg, day 17): 58.5%
Day when the tumor reaches a volume of 500 mm³ (Lewis carcinoma (3LL); 100 mg/kg, versus control): 27.3%*
Lifetime, Percent increase (Lewis carcinoma (3LL); 100 mg/kg, versus control): 70.42%*
Day when the tumor reaches a volume of 500 mm³ (Lewis carcinoma (3LL); 250 mg/kg): 20.5 ± 1.20 days
Lifetime, M ± m (Lewis carcinoma (3LL); 250 mg/kg): 56.38 ± 0.68 days
day post transplantation when the first tumors appeared (Lewis carcinoma (3LL); 250 mg/kg): 8 days
Number of large (>3 mm) metastases in lungs, M ± m (Lewis carcinoma (3LL); 250 mg/kg (n = 13)): 5.7 ± 1.54
Number of metastases in lungs, M ± m (Lewis carcinoma (3LL); 250 mg/kg (n = 13)): 55.8 ± 11.60
Weight of lungs, mg M + m (Lewis carcinoma (3LL); 250 mg/kg (n = 13)): 505.4 ± 68.82 mg
percent inhibition (average tumor volume) compared to the control group (Lewis carcinoma (3LL); 250 mg/kg, day 10): 84.37%
percent inhibition (average tumor volume) compared to the control group (Lewis carcinoma (3LL); 250 mg/kg, day 17): 54.2%
Day when the tumor reaches a volume of 500 mm³ (Lewis carcinoma (3LL); 250 mg/kg, versus control): 22.9%*
Lifetime, Percent increase (Lewis carcinoma (3LL); 250 mg/kg, versus control): 71.85%*
increase of the average lifetime against the control group (Lewis carcinoma (3LL); both doses): approximately 70%
